Laboratory results reported in US20220040212A1, “ORAL REHYDRATION COMPOSITION WITH OLIGOSACCHARIDES” (ABBOTT LABORATORIES, priority 2013, published 2022).
“And” between values parts separate entries of the source, which are not always exact repeats. Equal values may be shown once.

How the values were obtained:
[1] = Stability of 2′-FL, LNnT and 6′-SL in an ORC over time (0 D to 14 weeks); assay type: physicochemical; conditions: for % Remaining * (6′-SL): vs target fortification
Experimental: Another study was performed to determine the stability of 2′-FL, LNnT, and 6′-SL in an ORC over time (e.g., 1 week, 3 weeks, 6 weeks, and 14 weeks).
Sample Preparation: A master batch with a pH of 4.25 is sub-divided. The oligosaccharides are added to the respective ORC in an amount of 0.2 g/L for 2′-FL and 6′-SL, LNnT was fortified in an amount of 0.256 g/L. The pH was then adjusted from 4.25 to 3.5 by addition of citric acid. Prior to sterilization, samples are collected to evaluate oligosaccharide levels. The formulas were then delivered into 1 L bottles and subjected to heat sterilization and allowed to cool to room temperature.
The data on day 0 was collected in duplicate for samples prior to sterilization (unsterile) and after sterilization (sterile), thereafter the data was collected only on the sterilized samples. […] The slight fluctuation in lactose and lactulose levels are likely due to method variability.
The data on day 0 was collected in duplicate for samples prior to sterilization (unsterile) and after sterilization (sterile), thereafter the data was collected only on the sterilized samples.
The data on day 0 was collected in duplicate for samples prior to sterilization (unsterile) and after sterilization (sterile), thereafter the data was collected only on the sterilized samples. […] At 14 weeks, the concentration was 2.3% of the target fortification amount.

[2] = Stability of oligosaccharides in oral rehydration solution, before/after retort sterilization and 3 weeks after (HPAEC); assay type: physicochemical; conditions: for 6′-SL / Lactose / Sialic acid / % Theoretical 6′-SL: 6′-SL sample, pH 3.5; for % Theoretical 6′-SL: fortification 0.2 g/L
Experimental: A study was conducted to determine the relative stabilities of GOS, FOS, 2′-FL, 6′-SL, and LNnT in an oral rehydration solution. A master batch of product was prepared (shown in Table 1), the pH adjusted to approx. 4.25, and subsequently divided into five sub-batches.
Oligosaccharide ingredients were added to each of the sub-batches in amounts shown Table 2, and the pH of each sub-batch was subsequently adjusted to 3.5 with citric acid. The solutions were filled into 1 L plastic bottles, capped and retorted with a cook temperature of 217° F. for 25 minutes. Duplicate samples were collected immediately prior to sterilization and within 24 h after sterilization. Prior to sample analysis, the unsterile samples were stored at refrigerated temperature (˜40° F.) and the sterilized samples were held ambient temperature.
Samples were analyzed by HPAEC using a Dionex ICS3000 Ion Chromatography System (Thermo Scientific, Inc., Sunnyvale, Calif.) equipped with a pulsed amperometric detector comprised of a AgCl reference electrode, gold working electrode, and CarboPac PA1 guard (4×50 mm) and analytical columns (4×250 mm). Mobile phases were degassed and pressurized with 3 to 5 psi helium, and oligosaccharides eluted from the columns using various gradients detailed in Tables 3-5 at a flow rate of 1.0 mL/min. The column and detector were held at 20±2° C. Oligosaccharide identification and concentration were determined from quadratic fit (not forced through the origin) standard curves. […]
2′-FL fortification was calculated to be 0.2 g/L. Testing samples were reconstituted at 20 mL to 100 ml, with water, and then filtered using a 0.2 μm PES membrane syringe filter.
LNnT fortification was calculated to be 0.256 g/L. Testing samples were reconstituted at 20 mL to 100 ml, with water, and then filtered using a 0.2 μm PES membrane syringe filter.
6′-SL fortification was calculated to be 0.2 g/L. Testing samples were reconstituted at 20 mL to 100 mL with water, and then filtered using a 0.2 μm PES membrane syringe filter.

[3] = 6′-SL ORC pH 3.5, 0 D, sterile, average
[4] = 6′-SL ORC pH 3.5, 0 D, sterile, samples 1, 2
[5] = 6′-SL ORC pH 3.5, 0 D, unsterile, average
[6] = 6′-SL ORC pH 3.5, 0 D, unsterile, samples 1, 2
[7] = 6′-SL ORC pH 3.5, 3 WK, sterile, average
[8] = 6′-SL ORC pH 3.5, 3 WK, sterile, samples 1, 2
[9] = 6′-SL ORC pH 3.5, 6 WK, sterile, average
[10] = 6′-SL ORC pH 3.5, 6 WK, sterile, samples 1, 2
[11] = 6′-SL ORC pH 3.5, 14 WK, sterile, average
[12] = 6′-SL ORC pH 3.5, 14 WK, sterile, samples 1, 2
[13] = 3-week after sterilization, average
[14] = 3-week after sterilization, samples 1, 2
[15] = sterile (after retort 217° F. 25 min), samples 1, 2
[16] = sterile (after retort), average

6′-SL [1, 3]: 10.7 mg/L
Lactose [1, 3]: 149 mg/L
Sialic acid [1, 3]: 83.6 mg/L
% Remaining * (6′-SL) [1, 3]: 5.35%
6′-SL [1, 4]: 10.39 mg/L and 11 mg/L
Lactose [1, 4]: 149.4 mg/L
Sialic acid [1, 4]: 83.46 mg/L and 83.79 mg/L
% Remaining * (6′-SL) [1, 4]: 5.195% and 5.502%
6′-SL [1, 5]: 173 mg/L
Lactose [1, 5]: 24.6 mg/L
Sialic acid [1, 5]: 4.95 mg/L
% Remaining * (6′-SL) [1, 5]: 86.3%
6′-SL [1, 6]: 170.8 mg/L and 174.5 mg/L
Lactose [1, 6]: 24.22 mg/L and 24.9 mg/L
Sialic acid [1, 6]: 5.055 mg/L and 4.842 mg/L
% Remaining * (6′-SL) [1, 6]: 85.42% and 87.24%
6′-SL [1, 7]: 10.5 mg/L
% Remaining ** (6′-SL) [1, 7]: 5.27%
Lactose [1, 7]: 153 mg/L
Sialic acid [1, 7]: 82.9 mg/L
6′-SL [1, 8]: 10.5 mg/L and 10.6 mg/L
% Remaining ** (6′-SL) [1, 8]: 5.249% and 5.3%
Lactose [1, 8]: 152.2 mg/L and 154.0 mg/L
Sialic acid [1, 8]: 82.89 mg/L and 82.96 mg/L
6′-SL [1, 9]: 10.5 mg/L
% Remaining ** (6′-SL) [1, 9]: 5.26%
Lactose [1, 9]: 172 mg/L
Sialic acid [1, 9]: 98 mg/L
6′-SL [1, 10]: 10.47 mg/L and 10.59 mg/L
% Remaining ** (6′-SL) [1, 10]: 5.234% and 5.295%
Lactose [1, 10]: 170.5 mg/L and 174.4 mg/L
Sialic acid [1, 10]: 98.77 mg/L and 97.2 mg/L
6′-SL [1, 11]: 4.6 mg/L
% Remaining ** (6′-SL) [1, 11]: 2.31%
Lactose [1, 11]: 152 mg/L
Sialic acid [1, 11]: 91.7 mg/L
6′-SL [1, 12]: 4.66 mg/L and 4.57 mg/L
% Remaining ** (6′-SL) [1, 12]: 2.330% and 2.285%
Lactose [1, 12]: 149.5 mg/L and 155.1 mg/L
Sialic acid [1, 12]: 91.10 mg/L and 92.22 mg/L
Concentration as % of the target fortification amount ([1]; 6′-SL ORC pH 3.5, at 14 weeks): 2.3%
Discoloration relative to the other test compositions ([1]; ORC pH 3.5, heat sterilized): Slight discoloration
Change of oligosaccharide level over the course of the study (in words) ([1]; ORC pH 3.5, heat sterilized, 0 D to 14 weeks): significant decrease
6′-SL [2, 13]: 10.5 mg/L
Lactose [2, 13]: 153 mg/L
Sialic acid [2, 13]: 82.9 mg/L
% Theoretical 6′-SL [2, 13]: 5.27%
6′-SL [2, 14]: 10.5 mg/L and 10.6 mg/L
Lactose [2, 14]: 152.2 mg/L and 154 mg/L
Sialic acid [2, 14]: 82.89 mg/L and 82.96 mg/L
% Theoretical 6′-SL [2, 14]: 5.249% and 5.3%
6′-SL [2, 15]: 10.39 mg/L and 11.0 mg/L
Lactose [2, 15]: 149.4 mg/L
Sialic acid [2, 15]: 83.46 mg/L and 83.79 mg/L
6′-SL [2, 16]: 10.7 mg/L
Lactose [2, 16]: 149 mg/L
Sialic acid [2, 16]: 83.6 mg/L
6′-SL ([2]; unsterile, average): 173 mg/L
Lactose ([2]; unsterile, average): 24.6 mg/L
Sialic acid ([2]; unsterile, average): 4.95 mg/L
6′-SL ([2]; unsterile, samples 1, 2): 170.8 mg/L and 174.5 mg/L
Lactose ([2]; unsterile, samples 1, 2): 24.22 mg/L and 24.90 mg/L
Sialic acid ([2]; unsterile, samples 1, 2): 5.055 mg/L and 4.842 mg/L
Further loss 3-weeks after sterilization, relative to sterilized sample (in words) ([2]; oral rehydration solution pH 3.5, 3-weeks after sterilization): No additional loss
Loss of oligosaccharide during sterilization (in words) ([2]; oral rehydration solution pH 3.5, retort 217° F. 25 min): Significant loss
Compound: CC(=O)N[C@H]1[C@H]([C@H](O)[C@H](O)CO)O[C@@](OC[C@H]2O[C@@H](O[C@H]3[C@H](O)[C@@H](O)[C@H](O)O[C@@H]3CO)[C@H](O)[C@@H](O)[C@H]2O)(C(=O)O)C[C@@H]1O [6′-SL, 6′-sialyllactose]
